Columns and labels:
CD11b = molecular target: T1, CD11b (Homo sapiens, UniProt P11215); test: Cell adhesion assay on ICAM-1 coated substrates; assay type: cell-based; conditions: LA1 20 μM
T1 construct: Human CD14+ monocytes were isolated from the PBMCs; endogenous in cells; host or cells: primary human CD14+ monocytes from whole-blood PBMCs
Method: Cell Adhesion Assay— PBMCs were extracted from human whole blood using the vendor instructions for Sep Mate-50 tubes (#15450, Stem Cell). Human CD14+ monocytes were isolated from the PBMCs using the vendor instructions for the EasySep™ Human Monocyte Isolation Kit (Catalog #19359, Stem Cell). Briefly, 384-well plates (#3700, Corning) were coated with recombinant human ICAM1 (750 ng/mL, #720-IC, R&D Systems), or M1/70 (10 ug/mL, #101202, Biolegend) or IB4 (10 μg/mL, #167-020, Ancell) overnight at 4° C. Wells were blocked with 1% milk dissolved in TBS for 1 hr at room temperature. All wells received Ca^2+/Mg^2+ ions (1 mM each physiological concentration, baseline control) except for the positive control wells that received 1 mM Mn^2+ ions. A stock solution of LA1 agonist was prepared by dissolving the compound in DMSO at a concentration of 2 mM and final dilution of LA1 in wells was 20 μM. The final concentration of DMSO in all wells was 1%. 45,000 human monocytes were seeded in each well. Some wells received human monocytes cells that were pre-blocked with anti-human CD11b (M1/70) for 15 min at 4° C. The plates were incubated at 37° C. for 30 min followed by 30 min of inversion at room temperature to remove non-adherent cells. Cells were fixed, stained with DAPI and counted using the Opera High Content Screening System (Perkin Elmer). Assays were performed in six replicate wells.

[1] = tested on: bone marrow derived murine macrophages; test: mRNA/miRNA expression in LA1-treated macrophages; assay type: cell-based
Method: Murine macrophage differentiation and culture-Bone marrow derived cells (BMDC) were aseptically harvested from 6-8 week-old female mice by flushing leg bones of euthanized mice with phosphate buffered saline (PBS), 0.5% BSA, 2 mM EDTA, incubating in red cell lysis buffer (155 mM NH4Cl, 10 mM NaHCO3 and 0.1 mM EDTA) and centrifuging over Histopaque 1083 to purify the mononuclear cells. Approximately 5×10^7 BMDC were purified by gradient centrifugation from the femurs and tibias of a single mouse. Purified mononuclear cells were cultured in RPMI+20% serum+50 ng/ml M-CSF (PeproTech). Macrophage Polarization-Bone marrow derived macrophages were polarized with either IFNγ (20 ng/ml, Peprotech) plus LPS (100 ng/ml, Sigma) or LPS alone for 24 h or IL-4 (20 ng/ml, Peprotech) for 24-48 h. In some cases, macrophages were incubated with inhibitors of Stat3 ([…]) or cMyc (10058-F4, Selleck). […] Secreted protein was measured in culture supernatants by ELISA assays. […] Sybr green-based qPCR was performed using primers to murine Gapdh (Mm_Gapdh_1_SG), Arg1 (Mm_[…]_SG_QT00134288) Tgfb (Mm_Tgfb_1_SG Qiagen QT00145250), […] (Mm_Il10_1_SG Qiagen QT00106169), Il6 (Mm_Il6_1_SG Qiagen QT00098875), Nos2 (Mm_Nos2_1_SG Qiagen QT00100275), Il12b (Mm_Il12b_1_SG Qiagen QT00153643), Ifng (Mm_Ifng 1_SG Qiagen QT01038821), Il1b (Mm_Il1b_2_SG Qiagen QT01048355), Tnfa (Mm_Tnfa_1_SG Qiagen QT00104006), Vegfa (Mm_Vegfa_1_SG Qiagen QT00160769), Pdgfb (Mm_Pdgfb_1_SG Qiagen QT00266910) and human GAPDH (Hs_GAPDH_1_SG Qiagen QT00079247), ARG1 (Hs_Arginase_1_SG Qiagen QT00068446, IL6 (Hs_Il6_1_SG Qiagen QT00083720), NOS2 (Hs_NOS2_1_SG Qiagen QT00068740), IL12B (Hs_IL12B_1_SG Qiagen QT00000364), and PDGFB (Hs_PDGFB_1_SG Qiagen QT00001260) (Qiagen QuantiTect Primer Assay). mRNA levels were normalized to Gapdh or GAPDH (ΔCt=Ct gene of interest-Ct Gapdh) and reported as relative mRNA expression (ΔΔCt=2^-(ΔCt sample-ΔCt control)) or fold change. […]

[2] = tested on: LLC cells and macrophages; test: In vitro proliferation of LLC cells and macrophages; assay type: cell-based, murine
[3] = tested on: human MDA-MB-231 mammary xenograft tumors; test: Orthotopic MDA-MB-231 mammary xenograft model; assay type: in vivo, mice
Method: Alternatively, 5 million MDA-MB 231 human breast cancer cells were injected orthotopically in the 4th mammary fat pad of 6-week old female nude mice. The tumors were allowed to establish for 35 days (at least 0.5 cm in diameter) and the tumor bearing mice were divided into three treatment groups including, vehicle, LA1 only (i.p.; 2.0 mg/kg; daily) and Taxol only (i.p.; 2.5 mg/kg every other day). Treatment was initiated on day 35 and continued until the end-point at day 58 post-tumor when all the mice were sacrificed and tumor tissue was harvested for histological analysis. Palpable tumors were measured using digital calipers 3 times weekly during the entire experiment to develop tumor growth curves.

## O=C(O)c1ccc(-c2ccc(/C=C3\SC(=S)N(Cc4ccccc4)C3=O)o2)cc1 [LA1, leukadherin 1]
CD11b
  myeloid cell adhesion to ICAM-1 coated substrates: stimulated myeloid cell adhesion to ICAM-1 coated substrates
[1]; IFNγ+LPS stimulated bone marrow derived murine macrophages
  expression of Il1b, Tnfa, Il12, Nos2 and Ifng mRNAs: increases in expression of Il1b, Tnfa, Il12, Nos2 and Ifng mRNAs
[1]; macrophages
  Let7a expression: stimulated Let7a expression
  Pdgfb and Il6 expression: inhibited Pdgfb and Il6 expression
[2]
  LLC or macrophage viability: no direct effect on LLC or macrophage viability
[3]; LA1 2.0 mg/kg i.p. daily
  MDA-MB-231 xenograft tumor growth: suppressed the growth of orthotopic, human MDA-MB-231 mammary xenograft tumors
[3]; mice which lack T cells
  MDA-MB-231 tumor growth relative to control treated animals: 50%

— patent US11679100B2, “Methods of enhancing immunity” (The Regents of the University of California, priority 2018, dated 2023)
